Where two headings read alike, the source gives them in different places.
Biological target: T1, mouse TMEM16B (Mus musculus, UniProt Q8CFW1)
T1 construct: expressed in transfected cells; host or cells: HEK293T
T1 sequence (Q8CFW1 1-1002): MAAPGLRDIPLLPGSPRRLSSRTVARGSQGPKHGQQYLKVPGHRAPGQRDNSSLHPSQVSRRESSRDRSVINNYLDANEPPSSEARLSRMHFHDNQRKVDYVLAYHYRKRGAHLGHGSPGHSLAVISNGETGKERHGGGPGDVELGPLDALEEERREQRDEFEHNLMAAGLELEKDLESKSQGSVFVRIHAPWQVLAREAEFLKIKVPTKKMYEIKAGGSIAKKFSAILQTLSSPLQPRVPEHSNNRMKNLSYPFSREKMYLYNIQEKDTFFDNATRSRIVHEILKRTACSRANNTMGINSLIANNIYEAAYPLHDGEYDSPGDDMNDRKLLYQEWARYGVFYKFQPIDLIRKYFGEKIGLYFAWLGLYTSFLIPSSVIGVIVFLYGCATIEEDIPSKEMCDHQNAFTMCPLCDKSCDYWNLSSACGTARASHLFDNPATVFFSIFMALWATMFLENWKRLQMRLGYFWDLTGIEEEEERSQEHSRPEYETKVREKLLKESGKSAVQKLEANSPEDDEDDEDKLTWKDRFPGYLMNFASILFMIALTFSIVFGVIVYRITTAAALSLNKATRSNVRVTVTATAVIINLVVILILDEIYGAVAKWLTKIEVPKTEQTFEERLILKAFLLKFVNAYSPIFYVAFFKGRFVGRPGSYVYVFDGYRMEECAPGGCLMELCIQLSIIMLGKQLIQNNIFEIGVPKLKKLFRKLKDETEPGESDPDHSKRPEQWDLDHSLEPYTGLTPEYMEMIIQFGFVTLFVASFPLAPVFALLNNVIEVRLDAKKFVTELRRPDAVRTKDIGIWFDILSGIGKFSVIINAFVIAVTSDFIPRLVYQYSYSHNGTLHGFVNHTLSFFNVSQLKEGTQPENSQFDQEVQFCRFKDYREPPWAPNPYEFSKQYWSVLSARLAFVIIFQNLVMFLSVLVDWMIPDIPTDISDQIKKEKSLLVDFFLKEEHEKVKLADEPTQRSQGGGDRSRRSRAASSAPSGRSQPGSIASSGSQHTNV
Assay: Inside-out patch recording of 1PBC block, TMEM16B
Assay type: cell-based
Settings: 15 µM Ca2+; for remaining activity at 3 µM: 3 µM 1PBC; for remaining activity at 3 µM / remaining activity at 10 µM / remaining activity at 30 µM / remaining activity at 100 µM: read-out: I/Imax; for remaining activity at 10 µM: 10 µM 1PBC; for remaining activity at 30 µM: 30 µM 1PBC; for remaining activity at 100 µM: 100 µM 1PBC
Method: HEK293T cells (ATCC CRL-1573) were maintained in Dulbecco’s modified Eagle’s medium (DMEM; Sigma-Aldrich) supplemented with 10 U ml^−1 penicillin, 0.1 mg ml^−1 streptomycin (Sigma-Aldrich), 2 mM L-glutamine (Sigma-Aldrich), and 10% FBS (Sigma-Aldrich) in a humidified atmosphere containing 5% CO2 at 37 °C. HEK293S GnTI^− cells (ATCC CRL-3022) were maintained in HyClone HyCell TransFx-H medium (GE Healthcare) supplemented with 10 U ml^−1 penicillin, 0.1 mg ml^−1 streptomycin, 4 mM L-glutamine, 0.15% poloxamer 188 (Sigma-Aldrich), and 1% FBS in an atmosphere containing 5% CO2 at 185 rpm at 37 °C. The ac splice variant of mouse TMEM16A (UniProt ID: Q8BHY3), mouse TMEM16B (UniProt ID: Q8CFW1), or mouse TMEM16F (UniProt ID: Q6P9J9) bearing a 3C cleavage site, a Venus YFP, a Myc tag, and a Streptavidin-binding peptide (SBP) downstream of the open reading frame in a modified pcDNA3.1 vector (Invitrogen) were used as described previously[21],[31]. Mutations were introduced using a modified QuikChange method[58] and were verified by sequencing.
HEK293T cells were transfected with 3–4 μg DNA per 6 cm Petri dish using the calcium phosphate co-precipitation method and were used within 24–96 h after transfection. Recordings were performed on inside-out patches excised from HEK293T cells expressing the construct of interest. Patch pipettes were pulled from borosilicate glass capillaries (O.D. 1.5 mm, I.D. 0.86 mm, Sutter Instrument) and were fire-polished with a microforge (Narishige) before use. Pipette resistance was typically 3–8 MΩ when filled with the recording solutions detailed below. Seal resistance was typically 4 GΩ or higher. Voltage-clamp recordings were made using Axopatch 200B, Digidata 1550, and Clampex 10.7 (Molecular Devices). Analog signals were filtered with the in-built 4-pole Bessel filter at 10 kHz and were digitized at 20 kHz. Solution exchange was achieved using a gravity-fed system through a theta glass pipette mounted on an ultra-fast piezo-driven stepper (Siskiyou). […] All recordings were performed at 20 °C.
A symmetrical ionic condition was used throughout. Stock solution with Ca^2+-EGTA contained 150 mM NaCl, 5.99 mM Ca(OH)2, 5 mM EGTA, and 10 mM HEPES at pH 7.40. Stock solution with EGTA contained 150 mM NaCl, 5 mM EGTA, and 10 mM HEPES at pH 7.40. Free Ca^2+ concentrations were adjusted by mixing the stock solutions at the required ratios calculated using the WEBMAXC program (http://web.stanford.edu/~cpatton/webmaxcS.htm). Patch pipettes were filled with the stock solution with Ca^2+-EGTA, which has a free Ca^2+ concentration of 1 mM. 1PBC (ChemBridge) stock was reconstituted in anhydrous DMSO (Sigma-Aldrich) at 100 mM and stored at −20 °C. Working solutions with 1PBC were prepared by serial dilution. Unless otherwise stated, experiments were performed at a saturating Ca^2+ concentration as shown in Supplementary Table 1 and the primary data were corrected for current rundown as described previously[21],[25].
Concentration-response relations, obtained from the ratio of the I-V plots before and after the application of the blocker, were fitted to the Hill equation,1 I/Imax=1/1+IC50/[blocker]^h where I/Imax is the normalized current responses, IC50 defines the concentration at which inhibition is at its half-maximum, and h is the Hill coefficient.

N#Cc1c(C(F)(F)F)cc(O)n2c1nc1ccccc12 [1PBC]
remaining activity at 3 µM (+80 mV): 55.6% | remaining activity at 3 µM (-80 mV): 89.9% | remaining activity at 10 µM (+80 mV): 31% | remaining activity at 10 µM (-80 mV): 70.1% | Block of the channel TMEM16B: blocks | remaining activity at 30 µM (+80 mV): 16.8% | remaining activity at 30 µM (-80 mV): 43.9% | remaining activity at 100 µM (+80 mV): 7.99% | remaining activity at 100 µM (-80 mV): 20.5%
